Values quoted from earlier work in patent US4292313A, “LRF Antagonists” (The Salk Institute for Biological Studies, priority 1980, dated 1981).
[ ]: non-standard residue; d: D form. pGlu = O=C1CC[C@@H](C(=O)O)N1

Tested on: pituitary gland
Details: versus 6-Gly des-His2 analog

For [pGlu]WSY[dA]LRPG-NH2, the “Potency as inhibitor of release of gonadotropins relative to the same peptide with Gly in the 6-position” value is listed as 3 times.
